From patent US9926281B2 (priority 2014, dated 2018)
pIC50: −log10 of the molar value. Like-named read-outs stand apart in the source and are kept apart here.

Assays:
[1] = molecular target: rnADAMTS-5 (1-564-6H) (Rattus norvegicus, UniProt Q6TY19); details: read-out: Rat ADAMTS-5 potency IC50
[2] = molecular target: T1, human ADAMTS-5 (Homo sapiens (Human), UniProt Q9UNA0); details: read-out: hADAMTS-5 potency IC50
[3] = molecular target: human TACE (Homo sapiens (Human), UniProt P78536); details: read-out: TACE potency IC50
[4] = molecular target: human MMP13 (Homo sapiens (Human), UniProt P45452); details: read-out: hMMP-13 potency IC50
Procedure: Human MMP13 is preactivated by incubated the enzyme in the same buffer complemented with 1 mM freshly prepared p-Aminophenylmercuric acetate (AMPA) for 1 hour at 37° C.

[5] = molecular target: T1, human ADAMTS-5; details: read-out: hADAMTS-5 potency IC50; remark: listed apart in the source
Procedure: Finally, the fluorescence is read on the Envision (Perkin Elmer) after an incubation of 90 min at 37° C.

T1 sequence (Q9UNA0 262-930): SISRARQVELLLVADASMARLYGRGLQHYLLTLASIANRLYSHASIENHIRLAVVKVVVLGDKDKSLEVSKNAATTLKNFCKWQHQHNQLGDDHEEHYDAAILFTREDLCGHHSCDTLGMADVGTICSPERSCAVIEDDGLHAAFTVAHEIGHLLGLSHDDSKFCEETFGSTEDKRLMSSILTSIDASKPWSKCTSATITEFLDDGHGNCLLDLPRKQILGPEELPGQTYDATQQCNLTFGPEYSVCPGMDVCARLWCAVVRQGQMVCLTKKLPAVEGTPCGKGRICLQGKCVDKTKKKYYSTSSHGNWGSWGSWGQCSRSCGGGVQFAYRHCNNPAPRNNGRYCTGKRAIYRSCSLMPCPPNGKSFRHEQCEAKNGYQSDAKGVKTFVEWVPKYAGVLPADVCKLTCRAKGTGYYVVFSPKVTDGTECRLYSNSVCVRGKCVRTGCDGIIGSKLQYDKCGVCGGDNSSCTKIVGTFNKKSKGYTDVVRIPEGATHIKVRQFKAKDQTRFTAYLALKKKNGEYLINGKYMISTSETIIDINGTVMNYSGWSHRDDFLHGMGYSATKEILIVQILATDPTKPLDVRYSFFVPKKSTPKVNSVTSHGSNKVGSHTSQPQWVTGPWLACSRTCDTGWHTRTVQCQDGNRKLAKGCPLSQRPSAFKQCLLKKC
Chain of human TACE (P78536 whole entry, looked up, change not shown): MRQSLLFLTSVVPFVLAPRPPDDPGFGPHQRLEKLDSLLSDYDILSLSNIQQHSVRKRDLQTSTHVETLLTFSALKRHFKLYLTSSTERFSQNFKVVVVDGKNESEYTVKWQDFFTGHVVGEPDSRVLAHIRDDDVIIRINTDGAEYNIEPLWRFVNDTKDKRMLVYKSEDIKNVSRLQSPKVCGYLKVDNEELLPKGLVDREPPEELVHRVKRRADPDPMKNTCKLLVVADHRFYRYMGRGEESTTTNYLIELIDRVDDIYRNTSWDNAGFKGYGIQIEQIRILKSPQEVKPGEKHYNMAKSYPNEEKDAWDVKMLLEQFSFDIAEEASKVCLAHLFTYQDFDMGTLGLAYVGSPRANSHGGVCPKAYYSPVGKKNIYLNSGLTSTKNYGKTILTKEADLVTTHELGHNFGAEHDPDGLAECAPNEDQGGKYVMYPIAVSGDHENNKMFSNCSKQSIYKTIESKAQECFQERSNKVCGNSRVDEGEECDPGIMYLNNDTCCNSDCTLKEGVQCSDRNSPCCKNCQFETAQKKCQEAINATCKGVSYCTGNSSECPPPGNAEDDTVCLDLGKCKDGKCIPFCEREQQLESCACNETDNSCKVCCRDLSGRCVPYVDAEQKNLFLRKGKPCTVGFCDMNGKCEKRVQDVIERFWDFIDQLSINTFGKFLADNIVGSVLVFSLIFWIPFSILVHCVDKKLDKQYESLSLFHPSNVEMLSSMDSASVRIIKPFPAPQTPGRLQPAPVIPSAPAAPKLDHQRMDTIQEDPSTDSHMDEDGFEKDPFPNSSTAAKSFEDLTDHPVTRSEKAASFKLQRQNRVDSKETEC

| SMILES | pIC50 [1] | pIC50 [2] | pIC50 [3] | pIC50 [4] | pIC50 [5] |
| --- | --- | --- | --- | --- | --- |
| Cc1cc(Cl)c(F)cc1N1CCN(C(=O)CCC2(C)NC(=O)NC2=O)CC1 (centres unmarked) [compound 93, 5-[3-[4-(4-chloro-5-fluoro-2-methyl-phenyl)piperazin-1-yl]-3-oxo-propyl]-5-methyl-imidazolidine-2,4-dione] | < 5.40 | < 5.39 | < 5.45 | < 4.70 |  |
| O=C1NC(=O)C(CCC(=O)N2CCN(c3cccc(F)c3)CC2)(c2ccccn2)N1 (centres unmarked) [compound 103, 5-[3-[4-(3-fluorophenyl)piperazin-1-yl]-3-oxo-propyl]-5-(2-pyridyl)imidazolidine-2,4-dione] | 7.62 | 7.55 | 5.39 | 5.70 |  |
| O=C1NC(=O)C(CCC(=O)N2CCN(c3cccc(Cl)c3)CC2)(C2CCCCC2)N1 (centres unmarked) [compound 72, 5-[3-[4-(3-chlorophenyl)piperazin-1-yl]-3-oxo-propyl]-5-cyclohexyl-imidazolidine-2,4-dione] | 6.55 | 6.58 |  |  |  |
| Cc1ccc(Cl)cc1N1CCN(C(=O)CCC2(c3ccccn3)NC(=O)NC2=O)CC1 (centres unmarked) [compound 65, 5-[3-[4-(5-chloro-2-methyl-phenyl)piperazin-1-yl]-3-oxo-propyl]-5-(2-pyridyl)imidazolidine-2,4-dione] | 7.19 | 7.30 | 7.25 | < 4.70 |  |
| O=C1NC(=O)C(CCC(=O)N2CCN(c3ccc4ccccc4n3)CC2)(c2ccccc2)N1 (centres unmarked) [compound 15, 5-[3-oxo-3-[4-(2-quinolyl)piperazin-1-yl]propyl]-5-phenyl-imidazolidine-2,4-dione] | < 5.40 | < 5.40 |  |  |  |
| Cc1ccc(F)cc1N1CCN(C(=O)CCC2(c3ccccn3)NC(=O)NC2=O)CC1 (centres unmarked) [compound 104, 5-[3-[4-(5-fluoro-2-methyl-phenyl)piperazin-1-yl]-3-oxo-propyl]-5-(2-pyridyl)imidazolidine-2,4-dione] | 7.39 | 7.37 | 6.34 | < 4.70 |  |
| O=C1NC(=O)C(CCC(=O)N2CCN(c3cccc(Cl)c3)CC2)(c2cccnc2)N1 (centres unmarked) [compound 56, 5-[3-[4-(3-chlorophenyl)piperazin-1-yl]-3-oxo-propyl]-5-(3-pyridyl)imidazolidine-2,4-dione] | 7.14 | 7.42 | 5.50 |  |  |
| Cc1cccc(N2CCN(C(=O)CCC3(c4cccnc4)NC(=O)NC3=O)CC2)c1C (centres unmarked) [compound 69, 5-[3-[4-(2,3-dimethylphenyl)piperazin-1-yl]-3-oxo-propyl]-5-(3-pyridyl)imidazolidine-2,4-dione] | 6.73 | 6.75 |  |  |  |
| Cc1ccc(Cl)cc1N1CCN(C(=O)CCC2(C(C)(C)C)NC(=O)NC2=O)CC1 (centres unmarked) [compound 108, 5-tert-butyl-5-[3-[4-(5-chloro-2-methyl-phenyl)piperazin-1-yl]-3-oxo-propyl]imidazolidine-2,4-dione] | 6.39 | 6.49 |  |  |  |
| Cc1ccc(Cl)cc1N1CCN(C(=O)CCC2(c3ccccc3)NC(=O)NC2=O)CC1 (centres unmarked) [compound 24, 5-[3-[4-(5-chloro-2-methyl-phenyl)piperazin-1-yl]-3-oxo-propyl]-5-phenyl-imidazolidine-2,4-dione] | 6.88 | 7.03 | 6.53 |  |  |
| Cc1ccc(C2(CCC(=O)N3CCN(c4cc(Cl)ccc4C)CC3)NC(=O)NC2=O)cc1 (centres unmarked) [compound 77, 5-[3-[4-(5-chloro-2-methyl-phenyl)piperazin-1-yl]-3-oxo-propyl]-5-(p-tolyl)imidazolidine-2,4-dione] | 6.77 | 6.97 |  |  |  |
| CC1(CCC(=O)N2CCN(c3cncc(F)c3)CC2)NC(=O)NC1=O (centres unmarked) [compound 84, 5-[3-[4-(5-fluoro-3-pyridyl)piperazin-1-yl]-3-oxo-propyl]-5-methyl-imidazolidine-2,4-dione] | 6.20 | 6.09 |  |  |  |
| Cc1ccc(Cl)cc1N1CCN(C(=O)CCC2(c3cccnc3)NC(=O)NC2=O)CC1 (centres unmarked) [compound 46, 5-[3-[4-(5-chloro-2-methyl-phenyl)piperazin-1-yl]-3-oxo-propyl]-5-(3-pyridyl)imidazolidine-2,4-dione] | 7.38 | 7.46 | 6.86 |  |  |
| Cc1cc(N2CCN(C(=O)CCC3(c4ccccc4)NC(=O)NC3=O)CC2)ccc1[N+](=O)[O-] (centres unmarked) [compound 23, 5-[3-[4-(3-methyl-4-nitro-phenyl)piperazin-1-yl]-3-oxo-propyl]-5-phenyl-imidazolidine-2,4-dione] | 6.80 | 6.80 |  |  |  |
| Cc1cccc(N2CCN(C(=O)CCC3(c4ccccn4)NC(=O)NC3=O)CC2)c1C (centres unmarked) [compound 101, 5-[3-[4-(2,3-dimethylphenyl)piperazin-1-yl]-3-oxo-propyl]-5-(2-pyridyl)imidazolidine-2,4-dione] | 6.78 | 6.81 |  |  |  |
| Cc1ccc(Cl)cc1N1CCN(C(=O)CCC2(C3CCC3)NC(=O)NC2=O)CC1 (centres unmarked) [compound 71, 5-[3-[4-(5-chloro-2-methyl-phenyl)piperazin-1-yl]-3-oxo-propyl]-5-cyclobutyl-imidazolidine-2,4-dione] | 6.70 | 6.70 |  |  |  |

| SMILES | pIC50 [1] | pIC50 [2] | pIC50 [3] | pIC50 [4] | pIC50 [5] |
| --- | --- | --- | --- | --- | --- |
| O=C1NC(=O)C(CCC(=O)N2CCN(c3ccccc3)CC2)(c2cccnc2)N1 (centres unmarked) [compound 68, 5-[3-oxo-3-(4-phenylpiperazin-1-yl)propyl]-5-(3-pyridyl)imidazolidine-2,4-dione] | 6.70 | 6.77 |  |  |  |
| CC1(CCC(=O)N2CCN(c3ccc(Cl)c(F)c3)CC2)NC(=O)NC1=O (centres unmarked) [compound 49, 5-[3-[4-(4-chloro-3-fluoro-phenyl)piperazin-1-yl]-3-oxo-propyl]-5-methyl-imidazolidine-2,4-dione] | 6.85 | 6.90 | < 4.70 |  |  |
| Cc1c(Cl)cc(Cl)cc1N1CCN(C(=O)CCC2(C)NC(=O)NC2=O)CC1 (centres unmarked) [compound 139, 5-[3-[4-(3,5-dichloro-2-methyl-phenyl)piperazin-1-yl]-3-oxo-propyl]-5-methyl-imidazolidine-2,4-dione] |  | 6.64 | 5.88 | < 4.70 |  |
| Cc1ccccc1N1CCN(C(=O)CCC2(c3ccc(OCCN(C)C)cc3)NC(=O)NC2=O)CC1 (centres unmarked) [compound 81, 5-[4-(2-dimethylaminoethyloxy)phenyl]-5-[3-[4-(o-toyl)piperazin-1-yl]-3-oxo-propyl]imidazolidine-2,4-dione] | 6.08 | 6.17 |  |  |  |
| Cc1ccc(Cl)cc1N1CCN(C(=O)CCC2(C(C)C)NC(=O)NC2=O)CC1 (centres unmarked) [compound 33, 5-[3-[4-(5-chloro-2-methyl-phenyl)piperazin-1-yl]-3-oxo-propyl]-5-isopropyl-imidazolidine-2,4-dione] | 6.75 | 6.87 | 6.37 |  |  |
| Cc1ccc(F)cc1N1CCN(C(=O)CCC2(C3CC3)NC(=O)NC2=O)CC1C (centres unmarked) [compound 129, 5-cyclopropyl-5-[3-[4-(5-fluoro-2-methyl-phenyl)-3-methyl-piperazin-1-yl]-3-oxo-propyl]imidazolidine-2,4-dione] |  | 6.82 | < 5.40 | < 4.70 |  |
| Cc1ccccc1N1CCN(C(=O)CCC2(c3ccc(CN(C)C)cc3)NC(=O)NC2=O)CC1 (centres unmarked) [compound 82, 5-[4-(dimethylaminomethyl)phenyl]-5-[3-[4-(o-toly)piperazin-1-yl]-3-oxo-propyl]imidazolidine-2,4-dione] | 5.68 | 5.76 |  |  |  |
| COc1ccc(Cl)cc1C1(CCC(=O)N2CCN(c3cc(Cl)ccc3C)CC2)NC(=O)NC1=O (centres unmarked) [compound 133, 5-(5-chloro-2-methoxy-phenyl)-5-[3-[4-(5-chloro-2-methyl-phenyl)piperazin-1-yl]-3-oxo-propyl]imidazolidine-2,4-dione] |  | 6.97 | 6.71 | < 4.70 |  |
| COc1ccc(Cl)cc1C1(CCC(=O)N2CCN(c3cccc(Cl)c3)CC2)NC(=O)NC1=O (centres unmarked) [compound 132, 5-(5-chloro-2-methoxy-phenyl)-5-[3-[4-(3-chlorophenyl)piperazin-1-yl]-3-oxo-propyl]imidazolidine-2,4-dione] |  | 7.43 | 6.46 | 5.48 |  |
| Cc1cccc(N2CCN(C(=O)CCC3(C4CC4)NC(=O)NC3=O)CC2)c1C (centres unmarked) [compound 57, 5-cyclopropyl-5-[3-[4-(2,3-dimethylphenyl)piperazin-1-yl]-3-oxo-propyl]imidazolidine-2,4-dione] | 6.93 | 7.03 | < 4.92 |  |  |
| Cc1cccc(C)c1N1CCN(C(=O)CCC2(c3ccccc3)NC(=O)NC2=O)CC1 (centres unmarked) [compound 22, 5-[3-[4-(2,6-dimethylphenyl)piperazin-1-yl]-3-oxo-propyl]-5-phenyl-imidazolidine-2,4-dione] | 5.41 | < 5.42 |  |  |  |
| O=C1NC(=O)C(CCC(=O)N2CCN(c3cccc(Cl)c3)CC2)(c2ccc(Cl)cc2)N1 (centres unmarked) [compound 74, 5-(4-chlorophenyl)-5-[3-[4-(3-chlorophenyl)piperazin-1-yl]-3-oxo-propyl]imidazolidine-2,4-dione] | 6.97 | 7.05 |  | 5.58 |  |
| O=C1NC(=O)C(CCC(=O)N2CCN(c3ccc(Cl)cc3)CC2)(c2ccccc2)N1 (centres unmarked) [compound 5, 5-[3-[4-(4-chlorophenyl)piperazin-1-yl]-3-oxo-propyl]-5-phenyl-imidazolidine-2,4-dione] | 7.00 | 7.11 | < 5.48 |  |  |
| CC1(CCC(=O)N2CCN(c3ccccc3Cl)CC2)NC(=O)NC1=O (centres unmarked) [compound 19, 5-[3-[4-(2-chlorophenyl)piperazin-1-yl]-3-oxo-propyl]-5-methyl-imidazolidine-2,4-dione] | < 5.40 | < 5.40 |  |  | < 5.40 |
| Cc1ccc(Cl)cc1N1CCN(C(=O)CCC2(C3CCCC3)NC(=O)NC2=O)CC1 (centres unmarked) [compound 110, 5-[3-[4-(5-chloro-2-methyl-phenyl)piperazin-1-yl]-3-oxo-propyl]-5-cyclopentyl-imidazolidine-2,4-dione] | 6.52 | 6.53 |  |  |  |
